# Results reported in PubChem BioAssay (NCI).
#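 Grown in 96-well plates, cells were treated for 48 hours with each compound at five concentrations. Insufficient inhibition: endpoint recorded as highest concentration tested. GI50 is the concentration that inhibits growth by half. TGI: total growth inhibition.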
# How the values were obtained:
# Assay in all cases: inhibition of tumour cell growth, NCI panel, 48 h
# [1] = tested on: HT29 colon
# [2] = tested on: SK-OV-3 ovarian
# [3] = tested on: UO-31 renal
# [4] = tested on: HCT-116 colon
# [5] = tested on: SNB-75 CNS
# [6] = tested on: HCC-2998 colon
# [7] = tested on: OVCAR-5 ovarian
# [8] = tested on: OVCAR-3 ovarian
# [9] = tested on: A498 renal
# [10] = tested on: MCF7 breast
# [11] = tested on: SR leukemia
# [12] = tested on: OVCAR-4 ovarian
# [13] = tested on: BT-549 breast
# [14] = tested on: TK-10 renal
# [15] = tested on: SF-539 CNS
# [16] = tested on: KM12 colon
# [17] = tested on: T-47D breast
# [18] = tested on: NCI/ADR-RES ovarian
# [19] = tested on: CAKI-1 renal
# [20] = tested on: OVCAR-8 ovarian
# [21] = tested on: SW-620 colon
# [22] = tested on: A549 NSCLC
# [23] = tested on: RPMI-8226 leukemia
# [24] = tested on: HOP-62 NSCLC
# [25] = tested on: DU-145 prostate
# [26] = tested on: HS 578T breast
# [27] = tested on: UACC-257 melanoma
# [28] = tested on: NCI-H226 lung
# [29] = tested on: UACC-62 melanoma
smiles,measurement,setting,value
O=C(CCCCCCNC(=O)C(O)(O)C(F)(F)F)Nc1ncc(-c2ccc(Br)cc2)s1,GI50,[1],0.735 µM
same,TGI,[1],> 31.8 µM
same,GI50,[2],1.02 µM
same,TGI,[2],3.1 µM
same,GI50,[3],0.745 µM
same,TGI,[3],4.41 µM
same,GI50,[4],0.273 µM
same,TGI,[4],6.73 µM
same,GI50,[5],1.84 µM
same,TGI,[5],> 31.8 µM
same,GI50,[6],1.36 µM
same,TGI,[6],4.82 µM
same,GI50,[7],0.686 µM
same,TGI,[7],5.57 µM
same,GI50,[8],0.781 µM
same,TGI,[8],2.91 µM
same,GI50,[9],0.13 µM
same,TGI,[9],1.65 µM
same,GI50,[10],1.3 µM
same,TGI,[10],> 31.8 µM
same,GI50,[11],0.478 µM
same,TGI,[11],> 31.8 µM
same,GI50,[12],2.48 µM
same,TGI,[12],> 31.8 µM
same,GI50,[13],0.851 µM
same,TGI,[13],> 31.8 µM
same,GI50,[14],0.456 µM
same,TGI,[14],> 31.8 µM
same,GI50,[15],1.23 µM
same,TGI,[15],> 31.8 µM
same,GI50,[16],1.25 µM
same,TGI,[16],6.66 µM
same,GI50,[17],0.808 µM
same,TGI,[17],25.8 µM
same,GI50,[18],1.35 µM
same,TGI,[18],7.11 µM
same,GI50,[19],1.22 µM
same,TGI,[19],16.8 µM
same,GI50,[20],1.37 µM
same,TGI,[20],> 31.8 µM
same,GI50,[21],0.84 µM
same,TGI,[21],3.1 µM
same,GI50,[22],1.6 µM
same,TGI,[22],> 31.8 µM
same,GI50,[23],0.452 µM
same,TGI,[23],> 31.8 µM
same,GI50,[24],1.23 µM
same,TGI,[24],9.1 µM
same,GI50,[25],1.11 µM
same,TGI,[25],6.41 µM
same,GI50,[26],1.04 µM
same,TGI,[26],> 31.8 µM
same,GI50,[27],1.92 µM
same,TGI,[27],> 31.8 µM
same,GI50,[28],2.4 µM
same,TGI,[28],14.4 µM
same,GI50,[29],0.675 µM
